Assay results: patent US20130116267A1 (priority 2010, published 2013)
Entries after “also recorded” stand apart in the source; their conditions may differ. Like-named read-outs stand apart in the source and are kept apart here.

Legend:
[1] = biological target: PI3K p110 delta (Homo sapiens, UniProt O00329); conditions: cited from earlier work
[2] = test system: influenza virus strain PR8; type: cell-based
[3] = test system: H7N7 A/Equine/London/1416/73 influenza virus strain; type: in vivo; conditions: wild type mice, 10×LD50 H7N7 London strain; vs vehicle only; FIG. 3B
[4] = test system: HIV-1Ba-L; assay: HIV-1 p24 levels in supernatants of infected PHA/IL-2-activated PBMC; type: cell-based; conditions: n=4 donors, PBMC cultured with 1 μM, 10 μM or 50 μM, FIG. 4
[5] = test system: PHA-activated CD4+ T cells; assay: CD25 expression on CD4+ T cells exposed to HIV-1 (flow cytometry); type: cell-based, human; conditions: PHA-activated CD4+ T cells exposed to HIV-1; different concentrations, n=3; FIG. 6
[6] = test system: A549 cell
[7] = test system: neutrophils; conditions: read-out: IC50 in fMLP-induced elastase exocytosis from neutrophils; cited from earlier work
[8] = test system: CD3-induced IL-2 release; conditions: Lewis rats; cited from earlier work

Chain of PI3K p110 delta (O00329 whole entry): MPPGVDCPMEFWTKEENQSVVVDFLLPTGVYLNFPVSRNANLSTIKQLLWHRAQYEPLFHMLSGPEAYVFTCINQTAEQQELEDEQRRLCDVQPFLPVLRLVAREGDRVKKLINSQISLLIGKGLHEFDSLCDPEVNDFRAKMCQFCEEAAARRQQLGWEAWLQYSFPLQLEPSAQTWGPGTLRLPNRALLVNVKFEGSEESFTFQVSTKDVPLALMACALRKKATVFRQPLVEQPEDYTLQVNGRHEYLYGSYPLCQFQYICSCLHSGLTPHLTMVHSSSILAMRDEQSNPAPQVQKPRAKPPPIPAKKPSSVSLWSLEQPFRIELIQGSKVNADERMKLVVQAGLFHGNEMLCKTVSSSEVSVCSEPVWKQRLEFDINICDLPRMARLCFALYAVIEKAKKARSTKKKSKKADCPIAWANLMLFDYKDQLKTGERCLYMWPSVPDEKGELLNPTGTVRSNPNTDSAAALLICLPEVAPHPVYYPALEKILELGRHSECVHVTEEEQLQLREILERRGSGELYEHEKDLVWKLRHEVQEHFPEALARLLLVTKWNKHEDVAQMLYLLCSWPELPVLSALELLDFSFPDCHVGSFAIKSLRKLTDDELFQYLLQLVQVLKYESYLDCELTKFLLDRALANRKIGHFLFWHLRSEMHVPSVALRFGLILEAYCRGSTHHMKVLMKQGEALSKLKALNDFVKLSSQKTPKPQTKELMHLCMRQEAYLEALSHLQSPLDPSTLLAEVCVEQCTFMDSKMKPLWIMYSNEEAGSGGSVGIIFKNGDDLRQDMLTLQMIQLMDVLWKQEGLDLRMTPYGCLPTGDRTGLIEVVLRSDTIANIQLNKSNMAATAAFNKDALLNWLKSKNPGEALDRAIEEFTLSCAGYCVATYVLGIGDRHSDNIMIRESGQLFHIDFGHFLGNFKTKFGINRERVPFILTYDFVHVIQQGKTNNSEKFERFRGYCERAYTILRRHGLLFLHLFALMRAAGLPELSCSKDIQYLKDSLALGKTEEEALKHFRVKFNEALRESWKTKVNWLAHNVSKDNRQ
Chain of PI3K p110 delta (P27986 whole entry partner): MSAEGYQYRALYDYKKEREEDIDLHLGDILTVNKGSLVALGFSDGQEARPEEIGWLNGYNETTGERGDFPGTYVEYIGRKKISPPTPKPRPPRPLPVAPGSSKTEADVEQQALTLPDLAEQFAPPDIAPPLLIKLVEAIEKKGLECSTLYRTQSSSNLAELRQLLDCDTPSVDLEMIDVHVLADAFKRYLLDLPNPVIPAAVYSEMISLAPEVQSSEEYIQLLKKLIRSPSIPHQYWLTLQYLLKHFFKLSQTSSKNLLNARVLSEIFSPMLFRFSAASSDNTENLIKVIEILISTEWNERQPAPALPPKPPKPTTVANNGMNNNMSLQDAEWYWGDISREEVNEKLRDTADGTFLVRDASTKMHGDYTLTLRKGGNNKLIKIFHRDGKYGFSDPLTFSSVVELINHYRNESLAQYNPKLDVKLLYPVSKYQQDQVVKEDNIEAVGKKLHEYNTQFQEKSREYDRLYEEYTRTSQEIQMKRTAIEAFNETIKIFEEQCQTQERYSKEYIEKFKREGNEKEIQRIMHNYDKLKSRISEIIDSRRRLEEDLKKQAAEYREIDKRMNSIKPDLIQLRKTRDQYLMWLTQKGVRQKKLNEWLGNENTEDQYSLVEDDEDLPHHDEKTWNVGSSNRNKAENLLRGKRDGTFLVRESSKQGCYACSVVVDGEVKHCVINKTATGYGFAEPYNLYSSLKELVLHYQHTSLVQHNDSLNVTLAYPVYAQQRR

Cc1oc2ncn(CC(C)C)c(=O)c2c1C(=O)NCc1cccnc1 [Compound (VI), 3-isobutyl-6-methyl-4-oxo-N-(pyridin-3-ylmethyl)-3,4-dihydrofuro[2,3-d]pyrimidine-5-carboxamide]
IC50 ([1]; read-out: PI3K p110 delta IC50): 1200 nM

Cc1ccccc1-n1c(Cn2cnc3c(N)ncnc32)nc2cccc(C)c2c1=O [IC87114, 2-[(6-amino-9H-purin-9-yl)methyl]-5-methyl-3-(o-tolyl)quinazolin-4(3H)-one]
influenza virus replication [2]: inhibits influenza virus replication
viral mRNA production reduced compared to untreated cells ([2]; A549 epithelial cell line infected with influenza virus, FIG. 1B: 100 μM, PR8, MOI=0.01): ~25 fold
survival after lethal challenge [3]: increased survival; also recorded: protects mice lethally challenged
reduction of 48 hour HIV-1 p24 levels [4]: approximately 80%
CD25 expression [5]: not affected
survival of A549 cell [6]: did not affect the survival

Cc1noc2nc(C(C)Sc3ncnc4[nH]cnc34)n(-c3ccccc3)c(=O)c12 (stereo not drawn) [Compound (V), 6-(1-((9H-purin-6-yl)thio)ethyl)-3-methyl-5-phenylisoxazolo[5,4-d]pyrimidin-4(5H)-one]
IC50 [7]: 1200 nM

Nc1nc(N)c2nc(-c3cccc4[nH]ccc34)cnc2n1 [Compound (XXIX), 6-(1H-indol-4-yl)pteridine-2,4-diamine]
IC50 ([1]; read-out: PI3K p110 delta IC50): 64 nM

COc1ncc(-c2ccc3nccc(-c4ccncc4)c3c2)cc1NS(=O)(=O)c1ccc(F)cc1F [Compound (XXXII), 2,4-difluoro-N-(2-methoxy-5-(4-(pyridin-4-yl)quinolin-6-yl)pyridin-3-yl)-benzenesulfonamide]
IC50 ([1]; read-out: apparent PI3K p110 delta IC50): 0.024 nM

CC(c1nc2ccsc2c(=O)n1-c1ccccc1)n1cnc2c(N)ncnc21 (stereo not drawn) [Compound (IV), 2-(1-(6-amino-9H-purin-9-yl)ethyl)-3-phenylthieno[3,2-d]pyrimidin-4(3H)-one]
IC50 ([1]; read-out: PI3K p110 delta IC50): 40 nM

COCC(O)Cn1cc(-c2ccc3c(c2)N(c2nc4c(s2)C(=O)NC(C)(C)C4)CCO3)cn1 (stereo not drawn) [Compound (XXI), 2-(6-(1-(2-hydroxy-3-methoxypropyl)-1H-pyrazol-4-yl)-2H-benzo[b][1,4]oxazin-4(3H)-yl)-6,6-dimethyl-6,7-dihydrothiazolo[5,4-c]pyridin-4(5H)-one]
ED50 in a CD3-induced IL-2 release study [8]: 5 mg/kg
